# Results taken from US8138304B2, “Neural regeneration peptides and formulations thereof” (Neuren Pharmaceuticals Limited, priority 2005, dated 2012).
# Where no end group is shown, it is not given here.
# Columns and labels:
# cerebellar microexplants = experiment: Cerebellar microexplant survival assay (3-NP/glutamate injury); format: cell-based, Wistar rat; details: in this particular assay; concentration not given
# Protocol: (§1) Laminated cerebellar cortices of the two hemispheres were explanted from a P3, P4, P7 or P8 Wistar rat, cut into small pieces in GBSS with 0.65% D(+)glucose solution, and triturated by a 0.4 mm gauge needle and subsequently pressed through a 125 μm pore size sieve. The obtained microexplants were centrifuged (60×g) 2 times for a medium exchange into serum-free BSA-supplemented START V-medium (Biochrom). Finally, the microexplants were reconstituted in 500 μl STARTV-medium. For culturing, 38 μl of the cell suspension was incubated for 1 hour on a poly-D-lysine-coated cover slip in a 35 mm Petri dish under an atmosphere comprising 5% CO2 in air and 100% humidity at 34° C. Subsequently, the injuring toxins (as described below), NRPs and 1 ml of STARTV-medium were added, and the cultures were evaluated after 2-3 days of culture.
# Toxicological and drug administration experiments were designed such that 1/100 parts of toxin and neuroprotective drug were administered simultaneously to the freshly prepared cerebellar microexplants. […]
# For statistical analysis of survival, four fields (each field having an area of 0.65 mm^2) of each fixed cerebellar culture with the highest cell densities were chosen, and cells displaying neurite outgrowth were counted (survival assay).
# [1] = test system: experimental autoimmune encephalomyelitis (EAE) induced by MOG; experiment: EAE model of multiple sclerosis, prophylactic treatment; format: in vivo, mice, strain C57Bl/6J; details: for average clinical score / incidence of disease / mortality: 14 days from day 5
# [2] = test system: peripheral neuropathy induced by pyridoxine; experiment: Pyridoxine-induced peripheral neuropathy: precision beam walk test; format: in vivo, Sprague Dawley rats; details: for beam walk score: 7-step walk total score
# Protocol: (§2) Adult male Sprague Dawley P50 rats were divided into the vehicle (n=9) and NRP-treated (n=10) groups. The rats were killed with an overdose of sodium pentobarbiturate on the 24 day from the first administration of pyridoxine.
# (§3) From day 1, all rats were injected intraperitoneally (IP), twice daily, with 350 mg/kg pyridoxine for 8 consecutive days. Pyridoxine (Sigma) solution for injections was made using the following proportions: 95 mg of pyridoxine and 41 mg sodium bicarbonate in 1 ml of water.
# (§4) On days 1 to 10 the vehicle group (n=10) received one daily IP-injection of 24 mM sucrose and the rats in the NRP-treated group (n=10) received 4 μg/kg of NRP-5 segment GG analogue D4A (GRRAAPGRAGG-NH2; SEQ ID NO:2) diluted in 24 mM sucrose. Lyophilised NRP was stored in the presence of sucrose or alternatively in trehalose at room temperature. For every intraperitoneal (i.p.) injection, NRP-5 segment GG analogue D4A was reconstituted to 100 μM peptide concentration containing 0.5M sucrose/trehalose, further diluted with PBS to the actual working solution of 5 μg/ml NRP-5 segment GG analogue D4A (containing 24 mM sucrose). A rat with a body weight of 250 g was injected with 200 μl of the working solution.
# The precision beam walk test was used to assess the animals' precise coordinated movement on days 13, 17 and 24. Briefly, animals were habituated once daily for 7 days before start of pyridoxine treatment on a 1.5 m long beam (with two longitudinal stripes indicating the median of the beam). On day 0 (one day before pyridoxine/NRP treatment) a baseline of motor behaviour on the beam was videotaped. […] All scores were added for the 7-step walk to receive a total score for one tested animal at a given time point. If the tested rat could only stand on the beam but was unable to not walk it was given the score of 30, and if it was unable to stand on the beam, it was scored as 32.
# cerebellar cells = experiment: Cerebellar microexplant proliferation assay (BrdU); format: cell-based, Wistar rat; details: p<0.01; SEQ ID NO: 1 at 1 pM, SEQ ID NO: 2 at 100 pM
# Protocol: as §1
# Toxicological and drug administration experiments were designed such that 1/100 parts of toxin and neuroprotective drug were administered simultaneously to the freshly prepared cerebellar microexplants. Glutamate was prepared as a 50 mM stock solution in MilliQ water while 50 mM 3-nitropropionic acid was pH-adjusted (pH 6.8-7.2) in MilliQ water. The concentrations of the oxidative stress inducing toxin, 3-nitropropionic acid (3-NP), and the excitotoxin, glutamate, in the assay were 0.5 mM each. Lyophilized peptides were reconstituted in PBS or 100 μg/ml human transferrin as a 10 μM stock solution. Subsequently, serial dilutions were made. Cerebellar microexplants were cultivated for 48-72 hours at 34° C., 5% CO2 in air and 100% humidity before they were fixed by increasing amounts of paraformaldehyde (0.4%, 1.2%, 3% and 4%—each treatment 2-3 min).
# Using the toxins described above, cerebellar explants were exposed for 24 hours, at the beginning of culturing to dilutions of NRP (survival assay) or NRP and 0.1 μM BrdU (proliferation assay). Subsequently, 80% of the medium was changed without addition of new toxins and NRPs. […]
# For statistical analysis of proliferation BrdU-positive nuclei were counted. Statistical significance was measured by Student's t-test.
# [3] = test system: peripheral neuropathy induced by pyridoxine; experiment: Pyridoxine-induced peripheral neuropathy: hind limb adduction test; format: in vivo, Sprague Dawley rats; details: end of the study
# Protocol: as §2, §3
# as §4, with “A rat with a body weight of 250 g was injected with 200 μl of the working solution.” left out
# Overall motor movement impairment was analysed by assessing the ability of each rat to adduct (i.e. keep its limbs close to the body) its hind limbs. […] These were scored as “0”. Rats that drew their hind limbs back after a slight delay were scored as “1”. […]
# [4] = Pyridoxine-induced peripheral neuropathy: weight loss; format: in vivo, Sprague Dawley rats; details: 4 μg/kg IP daily days 1 to 10
# Protocol: as §2, §3, §4
# Animals are weighed daily during the experimental timeframe of 24 days. According to the study protocol, animals showing weight loss of more than 15% body weight were immediately killed. One of the control animals was sacrificed on day 4 of the pyridoxine treatment (control n=9).
# [5] = test system: peripheral neuropathy induced by pyridoxine; experiment: Pyridoxine-induced peripheral neuropathy: motor impairment score; format: in vivo, Sprague Dawley rats
# Protocol: as §2, §3
# On days 1 to 10 the vehicle group (n=10) received one daily IP-injection of 24 mM sucrose and the rats in the NRP-treated group (n=10) received 4 μg/kg of NRP-5 segment GG analogue D4A (GRRAAPGRAGG-NH2; SEQ ID NO:2) diluted in 24 mM sucrose. Lyophilised NRP was stored in the presence of sucrose or alternatively in trehalose at room temperature. […]
# Overall motor impairment was analysed by assessing the gait of each rat: 1) on a flat surface and 2) its ability to walk across a wooden beam. […]
# If the animal walked with no difficulty whatsoever, it was scored as a “0.” If there appeared to be problems in its gait, it was placed on a raised wooden beam. […]
# [6] = test system: experimental autoimmune encephalomyelitis (EAE) induced by MOG; experiment: EAE model of multiple sclerosis, therapeutic treatment; format: in vivo, mice, strain C57Bl/6J; details: score 0-6
# JAr cells = experiment: TNF-alpha-induced cytotoxicity in immortalized trophoblast cell line; format: cell-based, human; details: EGF 5 ng/ml
# Protocol: Choriocarcinoma cells (Jeg-3, BeWo and Jar; ATCC) were cultured under similar conditions in DMEM/F-12 cell culture medium in 75 cm2 flasks with filter tops (Raylab). Cells were allowed to adhere and grow in an incubator equilibrated in 95%/5% air/CO2 to approximately 70% confluence, before being split every 2 to 3 days by addition of 2 ml of 1× concentrated trypsin-EDTA. After a centrifugation step for 5 min at 1100 rpm, cells were resuspended in 15 ml of fresh DMEM/F-12 in sterile tissue flasks and placed back in the incubator.
# In this study, we plated 50,000 JAr cells per well. JAr cells are an immortalized line of cells derived from a human choriocarcinoma cells. Wells were pre-incubated with NRP-5RG D6A (SEQ ID NO: 1) at the concentrations indicated in FIG. 12, or epidermal growth factor (EGF; 5 ng/ml) for 2 hours. Subsequently, cells were exposed to the cultures for 48 hours to TNF-alpha (5 ng/ml) and interferon-gamma (5 ng/ml) to induce stress.
# [7] = test system: primary human trophoblasts; experiment: Trophoblast proliferation assay (BrdU incorporation); format: cell-based; details: EGF 0.8×10^−9 M; 24 hrs; BrdU
# Protocol: Cell proliferation was determined by BrdU incorporation to examine the effects of NRP-5RG D6A on the proliferation of trophoblasts. EGF (0.8×10^−9 M) was used as a positive control, since studies have previously shown it plays a role in enhancing trophoblast proliferation (Maruo et al., 1992).
# Initially cells were treated with NRP-5RG D6A (SEQ ID NO: 1), EGF and BrdU (0.05 μM) for 72 hrs. After the first 24 hrs, an 80% media change was carried out since BrdU is toxic over long incubation periods. Following 72 hrs of incubation, the reaction was stopped by fixation in 4% PFA. However, with this experimental design, most trophoblasts would form syncytia by the end of the 72 hrs, hindering accurate examination of the proliferative effect of NRP-5RG D6A on trophoblasts. […] This allowed analysis of proliferation of mononuclear trophoblasts.
# Cell proliferation was evaluated over 24 hrs after seeding 1.3×10^5 cells/cm^2 in culture media (1% serum) treated with 0.05 μM BrdU, NRP-5RG D6A and EGF (FIG. 13).
# [8] = 0.2 μg peptide/day (8.33 μg/kg) i.p.
substance,measurement,setting,value
IGF-1: Neuroprotectant named as comparator in the cerebellar microexplant assay [reference compound],"rescue values, protection",cerebellar microexplants,approximately 20%
"SEPEARRAPGRKGGVVCASLAADW (listed as Mus musculus) [SEQ ID NO: 5, 24-mer NRP-7 SW]",average clinical score,[1]; [8],less than 0.5
same,incidence of disease,[1]; [8],7 out of 9
same,mortality,[1]; [8],No animals died
same,clinical score compared to saline control,"[1]; from day 12 onwards, 0.2 μg peptide/day i.p.",significant attenuation in clinical score
"GRRAAPGRAGG-NH2 (listed as Homo sapiens) [SEQ ID NO: 2, 11-mer analogue of NRP-5]",rats that performed the 7-step walk,[2]; day 13,6 out of 10
same,beam walk score,[2]; day 13,23.50 ± 2.46
same,animals that could perform the walk,[2]; day 17,all but one
same,beam walk score,[2]; day 17,21.70 ± 1.43
same,"beam walk, difference between vehicle and NRP-treated group",[2]; day 24,no longer a significant difference
same,proliferation compared against injured cells without NRP,cerebellar cells,highly proliferation-inducing
same,animals with no sign of hind limb adduction after manual manipulation,[3],9 out of 10
same,hind limb adduction score,"[3]; score 0-3, 4 μg/kg IP daily days 1 to 10",0.10+0.31
same,initial weight loss,[4],3.7%
same,body weight versus vehicle-treated group,[4]; day 8 until day 21,significantly higher
same,body weight at the peak of weight loss,[4]; day 10,96.3+1.2 % of day 1 weight
same,motor impairment score,"[5]; day 13 (peak of disease), score 0-3, 4 μg/kg IP daily days 1 to 10",0.60+0.52
same,motor impairment outcome,[5]; day 24,recovered
"REGRRDAPGRAGG (listed as Homo sapiens) [SEQ ID NO: 3, 13-mer NRP-5 segment RG]",mean clinical score after treatment,[6]; 0.1 μg peptide/animal (4.16 μg/kg) i.p. daily for 14 days from peak of disease,1.16
same,mean clinical score before treatment,[6]; peak of the disease (day 17 after MOG-immunization),2.61
EGF: epidermal growth factor; proliferation-inducing peptide used as internal/positive control [reference compound],trophoblast proliferation in the absence of TNF-alpha injury,JAr cells,stimulated trophoblast proliferation
same,rescue of JAr cells from TNF-alpha-induced cytotoxicity,JAr cells; 2 hours pre-incubation,weak effect
same,increase in trophoblast proliferation compared to control,[7],116.7±44%
"GTPGRAEAGGQVSPCLAASCSQAYG (listed as Homo sapiens) [SEQ ID NO: 4, 25-mer NRP-4 GG]",incidence of disease,[1]; 1 ug peptide/day i.p.,8 out of 10
same,mortality,[1]; 1 ug peptide/day i.p.,0
same,average clinical score,"[1]; day 27, 1 ug peptide/day i.p.",1.0
same,disease profile compared to saline control,"[1]; from 12 days onwards until day 27, 1 ug peptide/day i.p.",significant attenuation of the disease profile
